The Kd is the constant that tells how readily two partners part at equilibrium. The IC50 is the concentration that gives 50% inhibition.

The target of one series is T1, murine EphB4 (Mus musculus, UniProt P54761).
T1 construct: purchased R&D Systems 446-B4-200
T1 sequence (P54761 16-539 limits assumed): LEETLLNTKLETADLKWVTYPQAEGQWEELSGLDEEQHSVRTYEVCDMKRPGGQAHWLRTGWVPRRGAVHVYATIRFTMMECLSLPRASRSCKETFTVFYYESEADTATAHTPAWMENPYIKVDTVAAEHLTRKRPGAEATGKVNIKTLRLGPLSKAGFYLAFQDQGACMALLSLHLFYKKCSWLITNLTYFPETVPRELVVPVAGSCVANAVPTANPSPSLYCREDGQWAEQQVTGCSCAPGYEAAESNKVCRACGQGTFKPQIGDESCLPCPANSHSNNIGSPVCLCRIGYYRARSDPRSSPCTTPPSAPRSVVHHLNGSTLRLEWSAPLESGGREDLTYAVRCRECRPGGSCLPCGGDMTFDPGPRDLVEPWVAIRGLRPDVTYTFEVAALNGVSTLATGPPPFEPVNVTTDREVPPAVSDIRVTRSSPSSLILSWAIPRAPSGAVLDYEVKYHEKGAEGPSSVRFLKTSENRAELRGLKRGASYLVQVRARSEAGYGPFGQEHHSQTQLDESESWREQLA
Description: Binding ELISA on immobilized murine EphB4-Fc, streptavidin-HRP detection (Table 3). The note with it: binding to murine EphB4; based on the estimated concentration of peptide-coupled PEG molecules; read-out: KD ± SE. The protocol:
The dissociation constants in Table 3 were measured in binding assays as described below. Reacti-bind Protein A coated strip plates were washed three times with the wash buffer TBST/Ca (TBS, 0.01% Tween, 1 mM CaCl2). Plates were coated with murine EphB4-Fc (reconstituted in PBS 200 μg/ml, diluted to 1 μg/ml in TBST/Ca) 100 μl/well for 1 hour at ambient temperature. The plates were washed four times with TBST/Ca. PEG-TNYL-RAW-biotin (made by The Burnham Institute, La Jolla, Calif.), obtained from the PEGylation reaction described in Example 2 supra, was added at different concentrations in TBST/Ca (100 μl/well) for 1 hour at ambient temperature. The plates were again washed four times with TBST/Ca. Streptavidin-HRP (1:2000) in 100 μl TBST/Ca was added for 1 hour at ambient temperature. The plates were again washed four times with TBST/Ca.

Series [1] addresses T2, murine EphB4/murine ephrin-B2 (Mus musculus, UniProt P54761).
T2 sequence (P54761 16-539 limits assumed): T1 sequence (P54761 16-539 limits assumed)
Description: Inhibition of murine EphB4-AP binding to immobilized murine ephrin-B2-Fc (Table 4). The settings on record: based on the estimated concentration of peptide-coupled PEG molecules, No PEG control not biotinylated. Here is the method: The IC50 values in Table 4 were obtained from inhibition assays. […] Reati-bind Protein A coated strip plates were washed three times with wash buffer TBST/Ca. Plates were coated with murine ephrin-B2-Fc (reconstituted in PBS 200 μg/ml, diluted to 1 μg/ml with TBST/Ca) 100 μl/well for 1 h at ambient temperature. The control used was Human-Fc (1 μg/ml; 100 μl/well); Human-Fc is the control for ephrin-B2-Fc, which contains the extracellular domain of ephrin-B2 fused to the Fc portion of human IgG1. The plates were washed four times with TBST/Ca. For each well was added: PEG-TNYL-RAW-biotin, from PEGylation reaction in Example 2, supra, at different concentrations; 10 μl murine EphB4-Alkaline Phosphatase (EphB4-AP); and TBST/Ca to 50 μl. Plates were incubates for 3 hours at ambient temperature, then washed four times with TBST/Ca. Substrate, 1 mg/ml PNPP in SEAP buffer, was added in the amount of 100 μl/well. (2×SEAP buffer (pH=9.8) was prepared by: adding 2.1 ml diethanolamine and 10 μl 1M MgCl2 to 10 ml (total) water; adjusting pH to 9.8; wrapping in foil and storing at ambient temperature; and diluting with water to 1× on day of use). Optical density analysis (OD405) was performed using a plate reader to determine the extent to which PEG-TNYL-RAW-biotin inhibits the EphB4-ephrin-B2 interaction. […]

The target in the next series is T3, EphB4 (Mus musculus, UniProt P54761).
T3 sequence (P54761 16-987): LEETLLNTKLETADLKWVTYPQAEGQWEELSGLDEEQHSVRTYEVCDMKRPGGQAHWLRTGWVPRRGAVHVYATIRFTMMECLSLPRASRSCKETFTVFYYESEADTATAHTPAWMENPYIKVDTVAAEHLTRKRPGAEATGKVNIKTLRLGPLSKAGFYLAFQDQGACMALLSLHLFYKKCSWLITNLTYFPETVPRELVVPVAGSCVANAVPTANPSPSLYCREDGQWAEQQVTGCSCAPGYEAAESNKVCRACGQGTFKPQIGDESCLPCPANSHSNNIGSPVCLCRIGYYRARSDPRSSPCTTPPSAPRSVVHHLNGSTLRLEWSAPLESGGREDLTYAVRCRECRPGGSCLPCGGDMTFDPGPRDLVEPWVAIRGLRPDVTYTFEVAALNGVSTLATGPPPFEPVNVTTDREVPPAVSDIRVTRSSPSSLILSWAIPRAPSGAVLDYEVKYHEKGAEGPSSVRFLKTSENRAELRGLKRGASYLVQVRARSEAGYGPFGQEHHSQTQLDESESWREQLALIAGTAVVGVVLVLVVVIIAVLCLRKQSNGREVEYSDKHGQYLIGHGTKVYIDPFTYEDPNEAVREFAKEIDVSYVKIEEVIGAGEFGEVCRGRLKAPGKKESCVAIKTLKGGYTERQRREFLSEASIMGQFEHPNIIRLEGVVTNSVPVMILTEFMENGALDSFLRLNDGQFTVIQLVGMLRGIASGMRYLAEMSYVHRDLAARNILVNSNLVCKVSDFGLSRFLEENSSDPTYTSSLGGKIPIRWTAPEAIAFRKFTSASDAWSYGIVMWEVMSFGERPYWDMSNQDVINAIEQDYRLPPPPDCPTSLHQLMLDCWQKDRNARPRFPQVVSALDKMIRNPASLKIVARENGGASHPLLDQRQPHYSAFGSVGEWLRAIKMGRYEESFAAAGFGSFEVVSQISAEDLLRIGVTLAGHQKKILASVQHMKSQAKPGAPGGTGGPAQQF
Description: EphB receptor specificity (% binding), Table 1. The settings on record: binding to EphB4.

The test system of series [2] is EphB1. Description: EphB receptor specificity (% binding), Table 1. The settings on record: binding to EphB1.
Series [3] concerns the target T4, EphB1 (Homo sapiens, UniProt P54762).
T4 sequence (P54762 18-540 limits assumed): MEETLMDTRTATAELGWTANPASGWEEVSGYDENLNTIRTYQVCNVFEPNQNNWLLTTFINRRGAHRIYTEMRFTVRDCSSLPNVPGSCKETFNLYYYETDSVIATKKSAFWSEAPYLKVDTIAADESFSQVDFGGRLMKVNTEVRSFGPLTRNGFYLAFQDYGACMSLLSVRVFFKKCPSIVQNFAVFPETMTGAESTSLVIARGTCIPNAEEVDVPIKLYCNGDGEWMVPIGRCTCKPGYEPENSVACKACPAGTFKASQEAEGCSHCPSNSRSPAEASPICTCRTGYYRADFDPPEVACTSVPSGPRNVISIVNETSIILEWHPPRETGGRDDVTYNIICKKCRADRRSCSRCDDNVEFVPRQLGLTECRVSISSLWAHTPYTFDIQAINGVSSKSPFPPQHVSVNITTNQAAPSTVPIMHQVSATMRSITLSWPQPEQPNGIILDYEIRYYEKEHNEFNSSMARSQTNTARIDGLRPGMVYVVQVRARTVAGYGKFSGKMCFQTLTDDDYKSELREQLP
Description: Inhibition of ephrin-B2 AP binding by peptides panned on EphB1 (Table 1).

The target in a further series is EphB2 (Homo sapiens, UniProt P29323). Description: EphB receptor specificity (% binding), Table 1. The settings on record: binding to EphB2.
EphB2, sequence (P29323 19-1055): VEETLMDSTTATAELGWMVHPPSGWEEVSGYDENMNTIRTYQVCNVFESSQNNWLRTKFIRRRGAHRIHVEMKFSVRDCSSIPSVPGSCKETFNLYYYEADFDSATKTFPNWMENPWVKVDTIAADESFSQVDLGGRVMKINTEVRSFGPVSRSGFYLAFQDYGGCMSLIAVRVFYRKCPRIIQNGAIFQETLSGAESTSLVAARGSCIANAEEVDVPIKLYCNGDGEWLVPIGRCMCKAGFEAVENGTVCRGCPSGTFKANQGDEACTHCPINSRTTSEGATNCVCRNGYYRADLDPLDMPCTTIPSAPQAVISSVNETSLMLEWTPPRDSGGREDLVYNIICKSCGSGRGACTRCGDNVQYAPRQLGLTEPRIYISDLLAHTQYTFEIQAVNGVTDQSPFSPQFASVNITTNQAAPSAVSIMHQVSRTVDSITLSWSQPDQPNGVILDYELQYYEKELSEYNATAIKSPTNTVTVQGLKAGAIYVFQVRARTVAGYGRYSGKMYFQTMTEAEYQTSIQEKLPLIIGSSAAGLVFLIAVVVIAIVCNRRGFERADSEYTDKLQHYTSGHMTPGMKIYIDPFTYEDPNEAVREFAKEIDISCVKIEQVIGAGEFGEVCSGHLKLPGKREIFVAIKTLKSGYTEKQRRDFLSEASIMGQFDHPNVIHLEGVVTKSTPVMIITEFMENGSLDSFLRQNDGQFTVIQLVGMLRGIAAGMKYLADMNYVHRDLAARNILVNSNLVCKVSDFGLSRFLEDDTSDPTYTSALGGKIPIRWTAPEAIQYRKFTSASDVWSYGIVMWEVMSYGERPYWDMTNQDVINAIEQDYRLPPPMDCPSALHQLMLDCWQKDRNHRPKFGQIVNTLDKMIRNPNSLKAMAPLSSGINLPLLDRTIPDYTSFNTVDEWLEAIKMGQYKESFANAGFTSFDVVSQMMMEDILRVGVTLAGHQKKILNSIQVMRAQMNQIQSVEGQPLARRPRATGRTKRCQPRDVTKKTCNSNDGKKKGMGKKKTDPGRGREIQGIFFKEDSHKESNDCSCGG

Like-named read-outs stand apart in the source and are kept apart here. No end group written: not given here.

For the compound “3.4 Kd (dimer): two TNYL-RAW peptides (with biotin) conjugated to a 3.4 kDa bifunctional PEG (SMB-PEG-SMB) (TNYLFSPNGPIARAW; also: biotin, position not given here, dimer: two peptides joined by 3.4 kDa bifunctional PEG (SMB-PEG-SMB))”, in the series with murine EphB4, the Kd is 0.9 ± 0.3 nM. “10 Kd (dimer): two TNYL-RAW peptides (with biotin) conjugated to a 10 kDa bifunctional PEG (SMB-PEG-SMB) (TNYLFSPNGPIARAW; also: biotin, position not given here, dimer: two peptides joined by 10 kDa bifunctional PEG (SMB-PEG-SMB))”: the IC50 in series [1] is 9 ± 2 nM. In addition, the Kd with murine EphB4 was 0.9 ± 0.2 nM. For “35 (SGHQLLNKMPN; EphB4-binding peptide) [compound 35]”, in the series with EphB4, the “EphB Receptor Specificity (% Binding) B4” value is recorded as 100%. With `CC[C@H](C)[C@H](NC(=O)[C@H](C)NC(=O)[C@H](Cc1ccccc1)NC(=O)[C@@H]1CCCN1C(=O)[C@H](CCC(=O)O)NC(=O)[C@@H](NC(=O)[C@@H](NC(=O)[C@H](Cc1c[nH]c2ccccc12)NC(=O)[C@H](Cc1c[nH]cn1)NC(=O)[C@@H](N)Cc1c[nH]c2ccccc12)[C@@H](C)O)[C@@H](C)CC)C(=O)N[C@H](C(=O)N[C@@H](CO)C(=O)O)[C@@H](C)O` [compound 8], the “EphB Receptor Specificity (% Binding) B1” value with EphB1 [2] came out at 99%. With `CC[C@H](C)[C@H](NC(=O)[C@H](CCCNC(=N)N)NC(=O)[C@H](Cc1c[nH]c2ccccc12)NC(=O)[C@H](Cc1c[nH]cn1)NC(=O)[C@@H](N)CC(=O)O)C(=O)N[C@@H](CC(C)C)C(=O)N1CCC[C@H]1C(=O)N[C@@H](Cc1ccccc1)C(=O)N[C@@H](CO)C(=O)N[C@@H](CC(C)C)C(=O)N[C@@H](CO)C(=O)N[C@@H](CO)C(=O)O` [compound 10], in the series with EphB1 [2], the “EphB Receptor Specificity (% Binding) B1” value was found to be 53%. Consider `CC[C@H](C)[C@H](NC(=O)[C@@H]1CCCN1C(=O)[C@H](Cc1c[nH]c2ccccc12)NC(=O)[C@H](Cc1c[nH]cn1)NC(=O)[C@@H](N)CO)C(=O)N[C@@H](CO)C(=O)N1CCC[C@H]1C(=O)N[C@@H](Cc1ccc(O)cc1)C(=O)N[C@@H](CO)C(=O)N[C@@H](CC(C)C)C(=O)N[C@@H](CC(C)C)C(=O)N[C@@H](CO)C(=O)O` [compound 14], for which, in the series with EphB1 [2], the “EphB Receptor Specificity (% Binding) B1” value was 39%.

As for `CC(C)C[C@H](NC(=O)[C@H](C)NC(=O)[C@@H](N)CC(=O)O)C(=O)N[C@@H](CC(N)=O)C(=O)N[C@@H](CC(=O)O)C(=O)N[C@@H](Cc1c[nH]c2ccccc12)C(=O)N[C@@H](CC(C)C)C(=O)N[C@@H](CC(C)C)C(=O)N[C@@H](Cc1ccccc1)C(=O)N[C@@H](CCCNC(=N)N)C(=O)N1CCC[C@H]1C(=O)N[C@@H](Cc1c[nH]c2ccccc12)C(=O)O` [compound 20], the “EphB Receptor Specificity (% Binding) B1” value in the series on EphB1 [2] was 0%. In the case of `CC[C@H](C)[C@H](NC(=O)[C@@H]1CCCN1C(=O)CNC(=O)[C@H](CC(N)=O)NC(=O)[C@@H]1CCCN1C(=O)[C@H](CO)NC(=O)[C@H](Cc1ccccc1)NC(=O)[C@H](CC(C)C)NC(=O)[C@H](Cc1ccc(O)cc1)NC(=O)[C@H](CC(N)=O)NC(=O)[C@@H](N)[C@@H](C)O)C(=O)N[C@@H](C)C(=O)O` [compound 24], in the series on EphB1 [2], the “EphB Receptor Specificity (% Binding) B1” value is listed as 5%. Still for that read-out and setting: in the case of `CC[C@H](C)[C@H](NC(=O)[C@@H](NC(=O)[C@@H]1CCCN1C(=O)[C@@H](N)CC(N)=O)C(C)C)C(=O)NCC(=O)N1CCC[C@H]1C(=O)N[C@H](C(=O)N[C@@H](CCC(N)=O)C(=O)N[C@@H](CCCNC(=N)N)C(=O)N[C@@H](C)C(=O)N[C@@H](Cc1c[nH]c2ccccc12)C(=O)N[C@H](C(=O)O)[C@@H](C)O)[C@@H](C)CC` [compound 27] it was 1%. AHTFPYPHPKPH [compound 3] came in with an IC50 at EphB1 [3] of about 150000 nM. The “EphB Receptor Specificity (% Binding) B1” value with EphB1 [2] is 100%. The “EphB Receptor Specificity (% Binding) B2” value on EphB2 amounted to 4%. Regarding DHNHNLYNPWRL [compound 21], the “EphB Receptor Specificity (% Binding) B1” value in the series on EphB1 [2] came to 9%. For the same compound, the “EphB Receptor Specificity (% Binding) B2” value on EphB2 is 8%. In turn, EWLSPNLAPSVR [compound 1] registered an IC50 at EphB1 [3] (panning receptor EphB1) of about 10000 nM. The “EphB Receptor Specificity (% Binding) B2” value at EphB2 is recorded as 2%. EWYMKFPPEHYF [compound 19]: the “EphB Receptor Specificity (% Binding) B1” value in the series on EphB1 [2] amounted to 22%. On the same count and under the same terms, in the case of FSPQGPAARNFA [compound 25] it was 13%. Regarding TNYLFSPNGPIARAW [TNYL-RAW], the “stability in cell conditioned medium” value (cell conditioned medium in the absence of the cells (FIG. 3C)) is on record as “rapidly lost”. For the same compound, the “stability in cell culture medium with PC3 cells” value (medium replaced with fresh medium just before adding the peptide (FIG. 3B)) is reported as “remained intact for several hours”. For the same compound, the “stability in cell conditioned medium with protease inhibitors” value (mixture of protease inhibitors (aprotinin, PMSF, leupeptin, pepstatin) added to conditioned medium (FIG. 3D)) was “reduce peptide instability”.

On to TYFDFQAWSIRA [compound 22], for which, in the series on EphB1 [2], the “EphB Receptor Specificity (% Binding) B1” value was 10%.

The values are drawn from patent publication US20100150834A1, “HIGH AFFINITY EPHB RECEPTOR BINDING COMPOUNDS AND METHODS OF USE THEREOF” (priority 2006, published 2010).
